Experimental data taken from patent US20220315632A1, “COMBINATION OF DIETARY PEPTIDES” (DIET4LIFE APS, priority 2019, published 2022).
Ends that are not written are not given here. Peptide text beside a SMILES is read from it.

Legend:
murine intestinal cells = murine intestinal cells (Mus musculus, UniProt O88319); assay: Ca2+ flux / calcium response assay (cell signaling activity) in murine intestinal cells; assay type: cell-based; conditions: FIG. 2, truncation
[1] = tested on: human (hIC) intestinal cells; assay: Ca2+ flux / calcium response assay in human intestinal cells (hIC); assay type: cell-based; conditions: FIG. 2, truncation
Description: Elevation of intracellular calcium level was measured using the fluorescent calcium chelating dye Fluo-4 AM (ThermoFischer Scientific, Denmark). Briefly, cells were grown as a monolayer in 96-well tissue culture plates (Sarstedt, Germany) to near confluence in appropriate growth medium as described in the cell culture section. Prior to the start of the assay, the cells were incubated with 1.5 μM Fluo-4 AM in complete culture media mixed 1:1 with Hank's balanced salt solution (HBSS, ThermoFischer Scientific, Denmark) containing 25 mM HEPES (pH 7.4), 1% BSA (Sigma-Aldrich, Denmark), 2% ink (Soluro GMBH, Germany), 0.01% Pluronic F-127 (Sigma-Aldrich, Denmark) and 1 mM Probenecide (Sigma-Aldrich) for 60 minutes at 37° C.
All test compounds were dissolved in water, and then diluted in 1×HBSS containing 25 mM HEPES (pH 7.4), 1% BSA and 2% ink. Without any removal of excess Fluo-4 AM, test compounds were added directly into the wells and fluorescence were measured using instrument settings for excitation at 488 nm and emission at 525 nm in a microtiter plate reader (SpectraMax M5, Molecular Devices, USA).
Human intestinal cell lines were cultured in McCoy's modified 5A medium supplemented with 10% fetal bovine serum and 1% penicillin/streptomycin/neomycin at 37° C. and 5% CO2 in a humidified incubator.

Swiss-Webster females = assay: Chronic feed intake, 3-week daily administration; assay type: in vivo; conditions: FIG. 18; liraglutide 3 μg/mouse s.c., DC7-2 1 mg/mouse i.p., sitagliptin 0.025 mg/mouse
From the text: FIG. 18. […] Mice had free access to water and feed in this 3-week study (n=14-18 per group). Significance (P<0.05) is shown as * compared to the corresponding vehicle control.
The effect of DC7-2 alone or in combination with liraglutide on feed intake and body weight was investigated in outbred Swiss-Webster females.

pepsin = assay: Pepsin degradation (proteolytic digest of meat); conditions: present in proteolytic digests
Description: Minced meat is diluted 1-10 times with distilled water, adjusted to pH 1-3 with hydrochloric acid, and incubated with 0.01-10% pepsin (w/w) at 4-40° C. for ½-12 h with adequate mixing. Insoluble material is removed by centrifugation at 100-1000 xg for 3-30 min, and supernatant is neutralized with NaOH. Using sterile conditions, low molecular weight peptides in supernatant are recovered by tangential ultrafiltration at 4-40° C. for ½-12 h, and excess water is evaporated at 25-50° C. for up to 12 h. The concentrated dialysate is tested for bioactivity with cells and used for further purification by HPLC.

mice [2] = conditions: mouse, in vivo, ip, 128 mg/kg
Description: Liraglutide reached its maximum inhibition of gastric emptying at doses higher than 3 mg/kg retaining approximately 30% of the phenol red marker solution in the stomach. […] A combination test was designed in which DC7-2 was given at EC50 (3 mg/kg) together with different doses of liraglutide (same as used in dose-response test) (FIG. 17 B). […] This was further supported by the different maximum values observed for liraglutide and DC7-2 alone, respectively.

[3] = Stability of peptides in serum (Fetal Bovine Serum), activity remaining; assay type: in vitro ADME; conditions: octapeptides X-SDKPYIL; fraction of peptide activity left after 10 min of incubation in serum at 37° C.
Description: All peptides were incubated at 10^−5 M with Fetal Bovine Serum (FBS; final concentration of 66.7%) (Sigma Aldrich, Denmark) at 37° C. for 3 hours. The peptide degradation was terminated using 1 M phosphoric acid (final 0.4 M, pH ˜1.2) and neutralized to pH 7.2-7.4 with NaOH before testing activity in intestinal cells. As for small intestine homogenates, a zero degradation control was included for each peptide.
DC7-2, NT, DKPYIL and NT-(8-13) (final concentration of 10^−6 M) were incubated either with FBS or with 270× diluted intestinal homogenate at 37° C. for various time points with shaking. Degradation was stopped with 1 M phosphoric acid and the samples were subsequently neutralized and immediately tested with intestinal cells as described above. Control for zero degradation was included for each peptide as above.
The 20 hexapeptides with systematic N-terminal substitutions (X-KPYIL) (Schafer-N, Denmark) and NT (8-13) was incubated at 10^−6 M in either FBS for 10 minutes or with 270× diluted intestinal homogenate for 30 minutes at 37° C. with shaking. The degradation was stopped with 1 M phosphoric acid. Peptide solutions were neutralized with NaOH (pH 7.2-7.4), diluted and immediately tested for bioactivity using murine intestinal cells. Determination of EC50 for stimulation of cells allowed calculation of recovered peptide. Systematic substitutions of N-terminal amino acids in octapeptide […] and their importance for activity and stability. Sequence, activity and stability of DC7-2 is italicized.

mice [4] = conditions: 1 week of daily exposure in mice; cited from earlier work

Sequence of murine intestinal cells (O88319 whole entry, the tested form may be a part): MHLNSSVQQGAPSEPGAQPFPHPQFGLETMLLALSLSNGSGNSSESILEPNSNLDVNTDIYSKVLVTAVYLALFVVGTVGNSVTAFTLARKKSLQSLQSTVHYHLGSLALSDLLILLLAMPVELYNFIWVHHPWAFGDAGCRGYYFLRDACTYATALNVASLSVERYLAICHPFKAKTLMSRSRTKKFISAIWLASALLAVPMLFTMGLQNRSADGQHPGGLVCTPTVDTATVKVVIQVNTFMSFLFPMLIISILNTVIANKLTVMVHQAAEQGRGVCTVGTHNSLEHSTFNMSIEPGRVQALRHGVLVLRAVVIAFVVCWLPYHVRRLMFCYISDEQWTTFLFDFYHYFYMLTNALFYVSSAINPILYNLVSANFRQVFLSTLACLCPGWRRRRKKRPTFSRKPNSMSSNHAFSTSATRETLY

Molecule	Stability in serum (activity remaining) [3]	other results
CC[C@H](C)[C@H](NC(=O)[C@H](Cc1ccc(O)cc1)NC(=O)[C@@H]1CCCN1)C(=O)N[C@@H](CC(C)C)C(=O)O [PYIL] (H-PYIL-OH)	–	activity compared with the full sequence ASDKPYIL in mIC (murine intestinal cells): two orders of magnitude lower activity; activity in hIC [1]: no activity
N[C@@H](CC(=O)N1CCn2c(nnc2C(F)(F)F)C1)Cc1cc(F)c(F)cc1F [sitagliptin]	–	accumulative feed intake after repeated daily administration (Swiss-Webster females): reduces feed intake
ASDKPYIL [Peptide ID 36036, A SDKPYIL]	–	pepsin degradation (pepsin): resistant to pepsin degradation; inhibition of gastric emptying (mice [2]): ~50%
ASDKPYIL [compound 36036]	0.0988 fraction	–
CSDKPYIL [compound 36037]	0.0963 fraction	–
DSDKPYIL [compound 36038]	0.0947 fraction	–
ESDKPYIL [compound 36039]	0.0964 fraction	–
FSDKPYIL [compound 36040]	0.0944 fraction	–
GSDKPYIL [compound 36041]	0.0912 fraction	–
HSDKPYIL [compound 36042]	0.0980 fraction	–
ISDKPYIL [compound 36043]	0.0956 fraction	–
KSDKPYIL [compound 36044]	0.0527 fraction	–
LSDKPYIL [compound 36045]	0.0917 fraction	–
MSDKPYIL [compound 36046]	0.0762 fraction	–
exendin-4	–	desensitization of glucose homeostasis (mice [4]): a tendency but not significant difference

Further lines, with some results ahead:

Stability in serum (activity remaining) [3]	Molecule	other results
0.0872 fraction	NSDKPYIL [compound 36047]	–
0.0772 fraction	PSDKPYIL [compound 36048]	–
0.0742 fraction	QSDKPYIL [compound 36049]	–
0.0735 fraction	RSDKPYIL [compound 36050]	–
0.0609 fraction	SSDKPYIL [compound 36051]	–
0.0535 fraction	TSDKPYIL [compound 36052]	–
0.0488 fraction	VSDKPYIL [compound 36053]	–
0.0426 fraction	WSDKPYIL [compound 36054]	–
0.0491 fraction	YSDKPYIL [compound 36055]	–
